# Experiments:
# hypoxischen CHO-ZeIlen = assay: Radiosensitisation of hypoxic CHO cells (enhancement ratio ER); format: cell-based; details: radiosensitising effect
# Text: Nickel-α-Diimin-Komplexe der Strukturtypen (α-Diimin)NiCl2 und [(α-Diimin)2Ni](ClO4)2 mit dem α-Diimin Antipy-PCD zeigen gegenüber isosteren Palladium- und Platin-Komplexen erhöhte radiosensibilisierende Wirkungen in hypoxischen CHO-ZeIlen; ER = 1,41 resp. 1,37. Für den unkoordinierten Antipy-PCD-Liganden, mit dem bekannten bioaktiven Molekülteil Phenazon, konnte nur ein sehr geringer strahlensensibilisierender Effekt (ER = 1,13) nachgewiesen werden. Die neutralen α-Diimin-Metall-Halogenid-Komplexe (a) der Nickel-Triade haben gegenüber analogen ionischen Perchlorat-Komplexen (b) eine deutlich höhere radiosensibilisierende Wirkung. Folgende Reihen entsprechender Komplexe - bezogen auf das Zentralmetall - mit abnehmenden o.g. sensibilisierenden Eigenschaften wurden ermittelt: für • (a) Ni > Pd > Pt • (b) Ni > Pt > Pd
# Von den untersuchten neuen Platin-α-Diimin-Komplexen ist die fünffach koordinierte (Antipy-PCD)PtCl2(NH3)-Verbindung wegen ihres relativ hohen strahlensensibilisierenden Effektes (ER = 1,36) - verglichen mit ER-Literaturdaten für Platinkomplexe - bedeutsam. Eine entsprechende Sensibilisierung aerobischer CHO-ZeIlen durch die hier untersuchten Substanzen wurde in keinem Fall beobachtet.
# [1] = test system: Mammakarzinomzell-Linie MDA-MB 231; assay: In vitro toxicity (T/C in %) on breast carcinoma cell line; format: cell-based, menschlichen; details: MDA-MB 231, qualitative or ranking
# Text: Die Toxizität (T/C in %) weiterer erstmals dargestellter α-Diimin-Komplexe der Nickel-Triade unterschiedlicher Strukturtypen wurde in vitro an der menschlichen Mammakarzinomzell-Linie MDA-MB 231 getestet.
# in vitro = details: hamster, cho cells
Compound,ER (hypoxischen CHO-ZeIlen),Toxizität (T/C in %) [1],"viability at 3 h, 300 µM (in vitro) [%]"
"Dichloro-2-pyridinal-(2,3-dihydro-1,5-dimethyl-3-oxo-2-phenyl-1H-pyrazol-4-ylimin)ammin-platin(II) [(Antipy-PCD)PtCl2(NH3)]","1,36",–,–
"Bis(2-pyridinal-2,3-dihydro-1,5-dimethyl-3-oxo-2-phenyl-1H- pyrazol-4-ylimin)-nickel(II)perchlorat [[(α-Diimin)2Ni](ClO4)2]","1,37",–,–
COc1cc([N+](=O)[O-])ccc1N=Cc1ccccn1 [2-MeO-4-NO2-Ph-PCD],–,merkliche Toxizität,–
"Cc1c(N=Cc2ccccn2)c(=O)n(-c2ccccc2)n1C [Antipy-PCD, 2-Pyridinal-2,3-dihydro-1,5-dimethyl-3-oxo-2-phenyl-1H-pyrazol-4-ylimin]","1,13",–,36

# Source: patent publication EP1537869A2, “Radiosensibilizer and preparation thereof” (Christian-Albrechts-Universität zu Kiel, priority 2003, dated 2005)
